Columns and labels:
[1] = tested on: FGFR3-TACC3_v1 (N-FLAG) fusion polypeptide; assay: In vitro kinase activity inhibition (HTRF KinEASE-TK); format: biochemical, human; details: 100 μM ATP
[2] = tested on: UM-UC-14 (FGFR3_S249C-positive cells, bladder cancer); assay: Antitumor test on UM-UC-14 subcutaneous xenograft; format: in vivo, nude mice; details: oral, 1 mg/kg/day, once a day, tumor volume at Day 11 vs Day 1
Method: 3×10^6 UM-UC-14 cells per 0.1 mL (PBS+matrigel, 1:1) were inoculated subcutaneously into the right flank of nude mice (CAnN, Cg-Foxn1nu/CrlCrlj (nu/nu), male, 4- to 5-week-old), and when their tumor size reached about 250 mm^3, drug administration was started (Day 1). The drug was administered once a day and the tumor size was measured with a caliper and the body weight was also measured every two or three days. The antitumor effect was finally determined based on the tumor volume (mm^3; minor axis (mm)×minor axis (mm)×major axis (mm)/2) at Day 11 (n=3-5). To the control group, 0.5% MC (methyl cellulose) was administered. […] “% regression” indicates what percentage of regression could be achieved compared with the tumor volume at Day 1. Here, the tumor volume at Day 1 means tumor volume immediately before drug administration.

human recombinant FGFR3 = human recombinant FGFR3 (Homo sapiens, UniProt P22607); assay: FGFR3 enzyme assay (LabChip EZ Reader)
Sequence of human recombinant FGFR3 (P22607 23-806): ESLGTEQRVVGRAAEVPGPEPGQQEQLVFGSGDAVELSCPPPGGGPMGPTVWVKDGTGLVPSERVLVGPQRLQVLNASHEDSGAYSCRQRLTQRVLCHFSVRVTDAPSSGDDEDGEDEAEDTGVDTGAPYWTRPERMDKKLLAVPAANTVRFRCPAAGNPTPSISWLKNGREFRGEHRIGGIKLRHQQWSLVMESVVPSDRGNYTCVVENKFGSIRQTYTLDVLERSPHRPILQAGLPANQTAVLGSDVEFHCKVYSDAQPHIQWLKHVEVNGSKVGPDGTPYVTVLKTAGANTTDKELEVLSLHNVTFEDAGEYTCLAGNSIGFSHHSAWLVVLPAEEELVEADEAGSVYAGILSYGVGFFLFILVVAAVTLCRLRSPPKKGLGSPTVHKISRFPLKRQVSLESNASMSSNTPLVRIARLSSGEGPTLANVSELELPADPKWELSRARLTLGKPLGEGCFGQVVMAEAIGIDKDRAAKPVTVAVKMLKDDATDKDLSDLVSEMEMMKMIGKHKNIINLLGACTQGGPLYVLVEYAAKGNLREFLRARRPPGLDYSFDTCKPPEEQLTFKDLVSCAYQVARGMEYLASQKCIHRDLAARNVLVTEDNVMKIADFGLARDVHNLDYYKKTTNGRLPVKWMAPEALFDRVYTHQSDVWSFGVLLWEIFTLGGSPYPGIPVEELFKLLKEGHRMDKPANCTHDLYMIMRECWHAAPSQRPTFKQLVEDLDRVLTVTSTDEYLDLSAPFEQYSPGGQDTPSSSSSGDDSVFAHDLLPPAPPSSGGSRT
Method: (§3) The compound was diluted with a solution of dimethyl sulfoxide (DMSO) (10-fold common ratio, 4 portions) before dilution with a reaction buffer (100 mM HEPES (pH7.5), 0.003% Brij-35, 0.004% Tween 20, 0.5 mM DTT, and 10 mM MgCl2) so that the final DMSO concentration was 2%. To 4 μL of the compound solution in a 384-well plate, 2 μL each of FGFR1 enzyme (2 or 3 ng/μL), FGFR2 enzyme (2 ng/μL), or FGFR3 enzyme (6 ng/μL) which were diluted with the reaction buffer was added. […] After the reaction was stopped, the reaction mixture was measured with a LabChip EZ Reader. The IC50 values were calculated by non-linear regression based on the inhibition rates obtained.

[3] = tested on: FGFR3-TACC3_v3 (N-FLAG) fusion polypeptide; assay: In vitro kinase activity inhibition (HTRF KinEASE-TK); format: biochemical, human; details: 100 μM ATP
[4] = tested on: FGFR3-TACC3_v2 (N-FLAG) fusion polypeptide; assay: as above; format: biochemical, human; details: 100 μM ATP
human recombinant FGFR1 = human recombinant FGFR1 (Homo sapiens, UniProt P11362); assay: FGFR1 enzyme assay (LabChip EZ Reader)
Sequence of human recombinant FGFR1 (P11362 22-822): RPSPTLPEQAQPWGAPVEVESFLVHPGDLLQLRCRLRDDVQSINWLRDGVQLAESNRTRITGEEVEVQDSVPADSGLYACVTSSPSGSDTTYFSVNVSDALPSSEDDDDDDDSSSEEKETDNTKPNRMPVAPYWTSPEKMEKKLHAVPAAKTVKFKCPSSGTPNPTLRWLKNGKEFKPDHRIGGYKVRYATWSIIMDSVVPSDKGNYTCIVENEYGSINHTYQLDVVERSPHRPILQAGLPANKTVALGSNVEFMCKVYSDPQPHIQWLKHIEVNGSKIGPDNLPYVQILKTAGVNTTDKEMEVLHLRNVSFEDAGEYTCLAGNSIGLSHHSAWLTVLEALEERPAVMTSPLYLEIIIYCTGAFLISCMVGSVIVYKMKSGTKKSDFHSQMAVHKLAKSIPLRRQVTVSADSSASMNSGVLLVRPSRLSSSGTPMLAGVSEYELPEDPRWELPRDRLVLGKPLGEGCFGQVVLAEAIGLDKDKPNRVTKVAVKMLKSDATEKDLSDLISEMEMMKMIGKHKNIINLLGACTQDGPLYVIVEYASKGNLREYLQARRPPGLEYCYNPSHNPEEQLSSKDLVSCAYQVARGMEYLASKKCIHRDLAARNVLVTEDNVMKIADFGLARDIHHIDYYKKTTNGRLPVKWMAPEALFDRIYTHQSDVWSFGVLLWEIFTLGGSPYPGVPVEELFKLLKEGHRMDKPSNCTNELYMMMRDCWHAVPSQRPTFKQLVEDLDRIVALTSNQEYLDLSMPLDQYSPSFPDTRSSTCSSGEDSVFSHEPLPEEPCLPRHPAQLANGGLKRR
Method: as §3

[5] = tested on: FGFR3-BAIAP2L1-expressing NIH3T3 cells; assay: Anchorage-independent cell growth inhibition, spheroid plate; format: cell-based; details: Mus musculus, NIH3T3, 96 h, 4 days, read-out: growth inhibition rate FGFR3-BAIAP2L1-expressing NIH3T3 Cells
Method: (§1) In a 96-well spheroid plate (Sumilon Celltight Spheroid 96U; Sumitomo Bakelite), FGFR3-BAIAP2L1-expressing NIH3T3 cells were seeded at 1×10^3 cells per well in D-MEM medium containing 10% fetal bovine serum. A well supplemented with only medium was also prepared for a positive control. Culturing was performed overnight in the presence of 5% CO2 at 37° C. followed by addition of test compounds (final concentrations: 100 nM, 10 nM, and 1 nM). As a negative control, DMSO used as a solvent for the compounds was added at the same concentration (0.1%) as in the case of addition of the compounds. Then, culturing was performed in the presence of 5% CO2 at 37° C. for 4 days, and a cell counting reagent (CellTiter-Glo™ Luminescent Cell Viability Assay; Promega) was added and the resulting mixture was stirred for 20 minutes followed by measurement with a luminometer.

[6] = tested on: FGFR3-TACC3_v3-expressing NIH3T3 cells; assay: as above; format: cell-based; details: Mus musculus, NIH3T3, 96 h, 4 days, read-out: growth inhibition rate v3
Description: (§2) Measurement for anchorage-independent cell growth (colony method, etc.) is known to be a system for investigating the anticancer action (pharmacological effect) of compounds (Clinical Oncology, second edition, Cancer and Chemotherapy Publishers Inc.). As a method for measuring the non-adhesive growth of cells, there is the following method using a spheroid plate as referred to above in place of the colony method.
as §1, with “Bakelite), FGFR3-TACC3_v1-expressing NIH3T3 cells, FGFR3-TACC3_v2-expressing NIH3T3 cells, FGFR3-TACC3_v3-expressing NIH3T3 cells, and FGFR3-TACC3_v4-expressing” for “Bakelite), FGFR3-BAIAP2L1-expressing”, “were each” for “were”, “D-MEM media (Invitrogen)” for “D-MEM medium”, “serum. […]” for “serum.”

[7] = tested on: FGFR3-TACC3_v1-expressing NIH3T3 cells; assay: as above; format: cell-based; details: Mus musculus, NIH3T3, 96 h, 4 days, read-out: growth inhibition rate v1
Description: as §2
as §1, with “Bakelite), FGFR3-TACC3_v1-expressing NIH3T3 cells, FGFR3-TACC3_v2-expressing NIH3T3 cells, FGFR3-TACC3_v3-expressing NIH3T3 cells, and FGFR3-TACC3_v4-expressing” for “Bakelite), FGFR3-BAIAP2L1-expressing”, “were each” for “were”, “D-MEM media (Invitrogen)” for “D-MEM medium”, “serum. […]” for “serum.”

[8] = tested on: FGFR3-TACC3_v2-expressing NIH3T3 cells; assay: as above; format: cell-based; details: Mus musculus, NIH3T3, 96 h, 4 days, read-out: growth inhibition rate v2
Description: as §2
as §1, with “Bakelite), FGFR3-TACC3_v1-expressing NIH3T3 cells, FGFR3-TACC3_v2-expressing NIH3T3 cells, FGFR3-TACC3_v3-expressing NIH3T3 cells, and FGFR3-TACC3_v4-expressing” for “Bakelite), FGFR3-BAIAP2L1-expressing”, “were each” for “were”, “D-MEM media (Invitrogen)” for “D-MEM medium”, “serum. […]” for “serum.”

[9] = tested on: FGFR3-TACC3_v4-expressing NIH3T3 cells; assay: as above; format: cell-based; details: Mus musculus, NIH3T3, 96 h, 4 days, read-out: growth inhibition rate v4
Description: as §2
as §1, with “Bakelite), FGFR3-TACC3_v1-expressing NIH3T3 cells, FGFR3-TACC3_v2-expressing NIH3T3 cells, FGFR3-TACC3_v3-expressing NIH3T3 cells, and FGFR3-TACC3_v4-expressing” for “Bakelite), FGFR3-BAIAP2L1-expressing”, “were each” for “were”, “D-MEM media (Invitrogen)” for “D-MEM medium”, “serum. […]” for “serum.”

[10] = tested on: bladder cancer patient-derived cell line RT-112; assay: as above; format: cell-based; details: Homo sapiens, RT-112, 96 h, 4 days, read-out: growth inhibition rate RT-112

SMILES: COc1cc(OC)c(F)c(COc2cnc(Nc3ccc(N4CCC(NCCO)CC4)cc3)nc2)c1F [Example 299]
- rate of inhibiting kinase activity v1 ([1]; 1 nM): 35%
- rate of inhibiting kinase activity v1 ([1]; 10 nM): 84%
- rate of inhibiting kinase activity v1 ([1]; 100 nM): 94%
- Antitumor Activity, % regression [2]: 15%
- IC50 (human recombinant FGFR3): 2 nM
- rate of inhibiting kinase activity v3 ([3]; 1 nM): 47%
- rate of inhibiting kinase activity v3 ([3]; 10 nM): 88%
- rate of inhibiting kinase activity v3 ([3]; 100 nM): 96%
- rate of inhibiting kinase activity v2 ([4]; 1 nM): 20%
- rate of inhibiting kinase activity v2 ([4]; 10 nM): 77%
- rate of inhibiting kinase activity v2 ([4]; 100 nM): 95%
- IC50 (human recombinant FGFR1): < 1 nM
- inhibition at 0.001 µM ([5]; 1 nM): 15%
- inhibition at 0.01 µM ([5]; 10 nM): 81%
- inhibition at 0.1 µM ([5]; 100 nM): 91%
- inhibition at 0.001 µM ([6]; 1 nM): 5%
- inhibition at 0.01 µM ([6]; 10 nM): 51%
- inhibition at 0.1 µM ([6]; 100 nM): 89%
- inhibition at 0.001 µM ([7]; 1 nM): 9%
- inhibition at 0.01 µM ([7]; 10 nM): 77%
- inhibition at 0.1 µM ([7]; 100 nM): 92%
- inhibition at 0.001 µM ([8]; 1 nM): 4%
- inhibition at 0.01 µM ([8]; 10 nM): 63%
- inhibition at 0.1 µM ([8]; 100 nM): 91%
- inhibition at 0.001 µM ([9]; 1 nM): 16%
- inhibition at 0.01 µM ([9]; 10 nM): 82%
- inhibition at 0.1 µM ([9]; 100 nM): 90%
- inhibition at 0.001 µM ([10]; 1 nM): 31%
- inhibition at 0.01 µM ([10]; 10 nM): 84%
- inhibition at 0.1 µM ([10]; 100 nM): 89%
